# Patent US11291642B2, “Dimethyl fumarate particles and pharmaceutical compositions thereof” (BIOGEN MA INC., priority 2015, dated 2022)
# Counter-ions that a name gives are not always drawn.
# Experiments:
# Type in all cases: physicochemical
# [1] = FT4 Powder Rheometer dynamic testing (flow rate index, specific energy); settings: for Flow Rate Index: flow energy at 10 mm/s / 100 mm/s
# Experimental: In certain embodiments, powder characterization described herein can be determined using the FT4 Powder Rheometer (Freeman Technology Ltd, Tewkesbury, UK) with the 25 mm vessel assembly having 23.5 mm diameter blades, vented piston, a segmented rotational shear cell accessory and a 10 or 25 ml borosilicate vessel. Powder testing can be generally divided into three categories: dynamic tests, permeability test and shear test. Dynamic testing uses the 23.5 mm diameter blades and a 25 ml powder sample in the borosiliate test vessel. Powder is filled into the vessel and the blades are simultaneously rotated and moved axially into the powder sample as the axial and rotational forces are measure and used to calculate the dynamic flowability parameters, such as flow rate index (FRI) and Specific Energy (SE). As used herein, the “flow rate index” (or FRI) is a measure of a powder's sensitivity to variable flow rate and is obtained as the ratio of the total energy required to induce powder flow at 10 mm/s and 100 mm/s blade tip speed. A larger deviation from 1 indicates greater sensitivity of a powder to variable flow rate. FRI=Flow Energy@10mm/s/Flow Energy@100mm/s As used herein, “specific energy” or SE is a measure of the powder flow in low stress environment and is derived from the shear forces acting on the blades as they rotate upward through the powder. The SE is recorded as the flow energy of the powder normalized by its weight in mJ/g during the upward spiral movement of the blades in a FT4 Powder Rheometer describe above. A lower SE is an indication of a less cohesive powder and better flow properties. DMF powder characterization was conducted using the FT4 Powder Rheometer (Freeman Technology Ltd, Tewkesbury, UK) using the 25 mm vessel assembly which consists of 23.5 mm diameter blades, vented piston, a segmented rotational shear cell accessory; and a 10 or 25 ml borosilicate vessel. All powders were pre-conditioned by the instrument's built-in conditioning step. Dynamic testing used the 23.5 mm diameter blades and a 25 ml powder sample in the borosilicate test vessel. Powder was filled into the vessel. The blades were simultaneously rotated and moved axially into the powder sample as the axial and rotational forces were measured and used to calculate the dynamic flowability parameters. Among dynamic parameters tested are Flow rate Index (FRI) and Specific Energy (SE). Their measurement techniques are described below: The FRI is a measure of a powder's sensitivity to variable flow rate and it is obtained as the ratio of the total energy required to induce powder flow at 10 mm/s and 100 mm/s blade tip speed. A larger deviation from 1 indicates greater sensitivity of a powder to variable flow rate. SE is a measure of the powder flow in low stress environment and is derived from the shear forces acting on the blades as they rotate upward through the powder. The SE is recorded as the flow energy of the powder normalized by its weight in […] during the upward spiral movement of the blades. A lower SE is an indication of a less cohesive powder and better flow properties.
# [2] = FT4 Powder Rheometer shear test (flow function); settings: for Flow Function: FT4, Table 2, FF=MPS/UYS; for Flow Function (FF): 350 kg batch, FT4, Table 3
# Experimental: Shear testing measures powder shear properties which involves the stress limit required to initiate a powder flow. The shear testing uses a segmented rotational shear cell head and a 10 ml powder sample in the borosilicate test vessel. Powder is filled into the vessel. The shear cell head is simultaneously rotated and moved axially under the powder sample at pre-determined normal stresses as the shear stresses are measured to calculate several parameters, including the flow function (FF). As used herein, “flow function” or FF is a parameter commonly used to rank powder's flowability and is determined using a shear test. The data produced in the shear test represents the relationship between shear stress and normal stress, which can be plotted to define the powder's Yield Locus, which is shown in FIG. 21. Fitting Mohr stress circles to the yield locus identifies the Major Principle Stress (MPS) and Unconfined Yield Strength (UYS). Flow function is the ratio of Major Principle Stress (MPS) to the Unconfined Yield Strength (UYS): FF=MPS/UYS. Usually, powders of low cohesion have higher FF and that represents better flow properties. Shear testing measures powder shear properties which involves the stress limit required to initiate a powder flow. The shear testing used a segmented rotational shear cell head and a 10 ml powder sample in the borosilicate test vessel. Powder was filled into the vessel. The shear cell head was simultaneously rotated and moved axially unto the powder sample at pre-determined normal stresses as the shear stresses were measured to calculate several parameters that include the flow function (FF) and powder cohesion (in kPa). Usually, powders of low cohesion have higher FF and that represents better flow properties.
# [3] = Particle size of dimethyl fumarate by Malvern laser diffraction; settings: for Span: Span=(D90−D10)/D50; for Span / D × 10 (μm) / D × 50 (μm) / D × 90 (μm) / D × 97 (μm) / ≤10 μm: Table 1; for ≤10 μm: fraction of particles ≤10 μm; for d10 / d50 / d90: 350 kg batch, laser diffraction, Table 3
# Experimental: As use herein, the particle size is expressed in terms of volume diameter and the particle size distribution is expressed in terms of D50, D10, D90 and span.
# In certain embodiments, the particle size described herein are measured using a laser diffraction technique that correlates light scattering to particle volume on which effective length or effective diameter is calculated. The distribution is based on a measurement of thousands of particles. Particle samples can be in dry form or in slurry. In one embodiment, the instrument used to determine particle size/distribution is a Beckman Coulter LS230 or a Malvern Mastersizer.
# As used herein, “D50”, also known as the median diameter, corresponds to the value under which 50% of the particles has a lower volume diameter. “D90” corresponds to the value under which 90% of the particles has a lower volume diameter. “D10” corresponds to the value under which 10% of the particles has a lower volume diameter.
# As used herein, “span” is a measure for particle size distribution. It is calculated according to the following equation: Span=(D90−D10)/D50
# [4] = Comparison of unmilled coarse DMF versus wet-milled DMF for enteric coating in fluid bed; settings: for Coated crystals: enterically coated particles made from the named API; for Flow of API particle in fluid bed: fluid bed coating process; for Particle morphology: uncoated API particles
# Experimental: The enteric coated DMF is prepared using a Glatt GPCG-2 fluid bed granulator with a 6′ Wurster column. Dissolution was run with USP apparatus II by the Pharmaceutical Analytical Development Department with the following method.
# DMF first de-lumped with a Frewitt Comill with screen size 1.0 mm. Then, it is mixed with silicon dioxide (Aerosil) and being fluidize in the fluid bed granulator for 5 minutes.
# Eudragit L100 and triethyl citrate is used for coating an enteric layer for stomach acid protection on the DMF API particles. Samples were taken at different L100 weight gain to compare gastric protection capability.
# Unmilled coarse DMF were coated according to the method of described in Example 5. Various properties of the unmilled coarse DMF and enterically coated DMF are compared with wet-milled DMF and enterically coated DMF made from wet-milled DMF.
# [5] = Particle morphology by Malvern Morphologi G3; settings: compared to jet milled material
# Experimental: As used herein, “aspect ratio” is the ratio of width divided by length of a particle. “Elongation” is defined as 1-aspect ratio. Shapes symmetrical in all axes, such as circles or squares, will tend to have an elongation close to 0, whereas needle-shaped particles will have values closer to 1. Elongation is more an indication of overall form than surface roughness. As used herein, “convexity” is a measurement of the surface roughness of a particle and is calculated by dividing the perimeter of an imaginary elastic band around the particle by the true perimeter of the particle. A smooth shape, regardless of form, has a convexity of 1 while a very ‘spiky’ or irregular object has a convexity closer to 0. As used herein, “circularity” or “high sensitivity circularity” is a measurement of the ratio of […]. A perfect circle has a circularity of 1 while a very narrow rod has a High Sensitivity (HS) Circularity close to 0. The higher the HS Circularity value the closer it is to a circle. Intuitively, circularity is a measure of irregularity or the difference from a perfect circle. […] The percentage of thicker particles can be determined using Malvern Instrument Morphologi G3. […] The intensity of light is quantified by the grey scale factor which depends on the amount of light reaching the detector. […]
# [6] = Flow of drug product blend measured with Flodex; settings: blends of DMF with other excipients as in approved twice a day formulation; FIG. 1
# Excerpt: The y-axis indicates the aperture of cone containing the blend powder. Smaller aperture indicates better flow.
# [7] = FT4, Table 2, no unit printed in table (mJ/g)
# [8] = listed as wet-milled DMF particles
smiles,measurement,setting,value
"COC(=O)/C=C/C(=O)OC [2014-4281-A.4, dimethyl fumarate]",Flow Rate Index,"[1]; FT4, Table 2",1.11
same,Specific Energy,[1]; [7],4.87
same,Flow Function,[2],5.84
same,Span,[3],1.562
same,D × 10 (μm),[3],31.9 μm
same,D × 50 (μm),[3],96 μm
same,D × 90 (μm),[3],182 μm
same,D × 97 (μm),[3],235 μm
same,≤10 μm,[3],2.61%
"COC(=O)/C=C/C(=O)OC [2014-4281-A.8, dimethyl fumarate]",Flow Rate Index,"[1]; FT4, Table 2",1.37
same,Specific Energy,[1]; [7],6.64
same,Flow Function,[2],3.29
same,Span,[3],1.71
same,D × 10 (μm),[3],27.2 μm
same,D × 50 (μm),[3],70.8 μm
same,D × 90 (μm),[3],148 μm
same,D × 97 (μm),[3],208 μm
same,≤10 μm,[3],3.87%
"COC(=O)/C=C/C(=O)OC [2014-4281-A.9, dimethyl fumarate]",Flow Rate Index,"[1]; FT4, Table 2",1.33
same,Specific Energy,[1]; [7],6.42
same,Flow Function,[2],2.50
same,Span,[3],1.58
same,D × 10 (μm),[3],26.8 μm
same,D × 50 (μm),[3],88.2 μm
same,D × 90 (μm),[3],166 μm
same,D × 97 (μm),[3],210 μm
same,≤10 μm,[3],3.02%
"COC(=O)/C=C/C(=O)OC [Batch 11P1310, dimethyl fumarate]",Span,[3],2.05
same,D × 10 (μm),[3],9 μm
same,D × 50 (μm),[3],30 μm
same,D × 90 (μm),[3],70 μm
same,D × 97 (μm),[3],97 μm
same,≤10 μm,[3],11.48%
"COC(=O)/C=C/C(=O)OC [Batch A14DS0977, dimethyl fumarate]",Span,[3],1.554
same,D × 10 (μm),[3],51.5 μm
same,D × 50 (μm),[3],127 μm
same,D × 90 (μm),[3],249 μm
same,D × 97 (μm),[3],319 μm
same,≤10 μm,[3],1.87%
"COC(=O)/C=C/C(=O)OC [Batch A14DS0978, dimethyl fumarate]",Flow Rate Index,"[1]; FT4, Table 2",1.68
same,Specific Energy,[1]; [7],8.67
same,Flow Function,[2],12.84
same,Span,[3],1.593
same,D × 10 (μm),[3],44.1 μm
same,D × 50 (μm),[3],113 μm
same,D × 90 (μm),[3],224 μm
same,D × 97 (μm),[3],294 μm
same,≤10 μm,[3],2.32%
"COC(=O)/C=C/C(=O)OC [Batch A14DS1097, dimethyl fumarate]",Flow Rate Index,"[1]; FT4, Table 2",1.54
same,Specific Energy,[1]; [7],9.19
same,Flow Function,[2],5.97
same,Span,[3],1.772
same,D × 10 (μm),[3],33.1 μm
same,D × 50 (μm),[3],87.8 μm
same,D × 90 (μm),[3],189 μm
same,D × 97 (μm),[3],257 μm
same,≤10 μm,[3],2.89%
"COC(=O)/C=C/C(=O)OC [Batch B1417-140304, dimethyl fumarate]",Flow Rate Index,"[1]; FT4, Table 2",1.50
same,Specific Energy,[1]; [7],5.48
same,Flow Function,[2],2.25
"COC(=O)/C=C/C(=O)OC [Run 1, dimethyl fumarate]",Flow rate Index (FRI),"[1]; 350 kg batch, FT4, Table 3",1.61
same,Specific Energy,"[1]; 350 kg batch, FT4, Table 3",12.21 mJ/g
same,Flow Function (FF),[2],10.3
same,d10,[3],35 μm
same,d50,[3],83 μm
same,d90,[3],156 μm
"COC(=O)/C=C/C(=O)OC [Run 2, dimethyl fumarate]",Flow rate Index (FRI),"[1]; 350 kg batch, FT4, Table 3",1.39
same,Specific Energy,"[1]; 350 kg batch, FT4, Table 3",12.18 mJ/g
same,Flow Function (FF),[2],4.95
same,d10,[3],39 μm
same,d50,[3],83 μm
same,d90,[3],150 μm
"COC(=O)/C=C/C(=O)OC [Wet milled API, dimethyl fumarate]",Coated crystals,[4],Isolated and small
same,Coated crystals,[4]; [8],small coated particles with uniform size distribution
same,Flow of API particle in fluid bed,[4],uniform flow
same,Flow of API particle in fluid bed,[4]; [8],desirable flowability
same,Particle morphology,[4],3D structure
same,Particle morphology,[4]; [8],three dimensional morphology
same,Particle size D50,"[4]; uncoated API, Table 8",D50 = 60-100 μm
same,"Particle shape (aspect ratio, HS circularity, convexity)",[5],"slightly less elongated, more circular and less edgy"
same,Thick particles (percentage of particles with intensity <80),[5],contained more thick particles
same,Powder flow of drug product blend,[6],improvement in powder flow
